Entries after “also recorded” stand apart in the source; their conditions may differ. Like-named read-outs stand apart in the source and are kept apart here.
Assays:
[1] = molecular target: T1, AChE (E.C.3.1.1.7, from electric eel) (Electrophorus electricus, UniProt O42275); experiment: biochemical; format: biochemical; settings: for cholinesterase inhibitory activity against eeAChE: in words
T1 construct: purchased Sigma-Aldrich and Fluka
Experimental: (§1) All the synthesized compounds were screened for their cholinesterase activity by Ellman’s spectrophotometric method with a slight modification. […] In brief, enzymatic reactions were accomplished in 96-well plates with total volume of 270 µL. Each well contained 0.1 M phosphate buffer (pH 7.4), 0.08 U/mL AChE or 0.05 U/mL BuChE and 0.3 mM of DTNB. In order to considering the influence of DMSO percentage on the enzymatic activity of AChE, different concentrations of the test sample were prepared in final concentrations of 0.2% DMSO. Then contents were incubated for 15 min at room temperature. The reaction was started with the addition of 20 µL of 0.45 mM substrate (ATCI/BTCI) into premixed enzyme/buffer/inhibitor mixture and monitored by using plate reader Synergy HT, Biotek, USA at 412 nm. The activity in the absence of sample compounds was considered as a blank. The percentage inhibition was calculated from (blank – test sample)/blank × 100.

[2] = molecular target: T2, BuChE (E.C.3.1.1.8, from equine serum) (Equus caballus, UniProt P81908); experiment: biochemical; format: biochemical; settings: for cholinesterase inhibitory activity against eqBuChE: in words; for inhibitory activity for eqBuChE: up to 100 µM concentrations; for IC50: modified Ellman's method, read-out: eqBuChE IC50
T2 construct: BuChE (E.C.3.1.1.8, from equine serum); purchased Sigma-Aldrich and Fluka; host or cells: equine serum
T2 sequence (P81908 whole entry): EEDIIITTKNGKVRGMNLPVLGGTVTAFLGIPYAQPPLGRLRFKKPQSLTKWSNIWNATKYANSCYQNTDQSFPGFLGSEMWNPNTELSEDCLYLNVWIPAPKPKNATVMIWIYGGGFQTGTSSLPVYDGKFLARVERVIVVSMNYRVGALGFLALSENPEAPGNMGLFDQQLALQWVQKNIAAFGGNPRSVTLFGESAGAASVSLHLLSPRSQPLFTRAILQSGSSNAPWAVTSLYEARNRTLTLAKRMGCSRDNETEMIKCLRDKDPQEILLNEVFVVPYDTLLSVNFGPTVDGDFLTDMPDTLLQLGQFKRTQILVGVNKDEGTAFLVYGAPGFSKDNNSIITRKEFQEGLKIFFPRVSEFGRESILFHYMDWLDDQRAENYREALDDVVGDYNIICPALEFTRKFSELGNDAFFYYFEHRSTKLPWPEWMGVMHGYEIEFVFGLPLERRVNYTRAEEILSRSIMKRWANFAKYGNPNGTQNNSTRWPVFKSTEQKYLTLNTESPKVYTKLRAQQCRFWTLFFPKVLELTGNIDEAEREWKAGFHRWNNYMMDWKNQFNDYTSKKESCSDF
Experimental: as §1

eeAChE = molecular target: T3, eeAChE (Electrophorus electricus, UniProt O42275); experiment: Kinetic study of eeAChE inhibition (Lineweaver-Burk); format: biochemical
T3 construct: purchased Sigma-Aldrich and Fluka
T3 sequence (O42275 24-633): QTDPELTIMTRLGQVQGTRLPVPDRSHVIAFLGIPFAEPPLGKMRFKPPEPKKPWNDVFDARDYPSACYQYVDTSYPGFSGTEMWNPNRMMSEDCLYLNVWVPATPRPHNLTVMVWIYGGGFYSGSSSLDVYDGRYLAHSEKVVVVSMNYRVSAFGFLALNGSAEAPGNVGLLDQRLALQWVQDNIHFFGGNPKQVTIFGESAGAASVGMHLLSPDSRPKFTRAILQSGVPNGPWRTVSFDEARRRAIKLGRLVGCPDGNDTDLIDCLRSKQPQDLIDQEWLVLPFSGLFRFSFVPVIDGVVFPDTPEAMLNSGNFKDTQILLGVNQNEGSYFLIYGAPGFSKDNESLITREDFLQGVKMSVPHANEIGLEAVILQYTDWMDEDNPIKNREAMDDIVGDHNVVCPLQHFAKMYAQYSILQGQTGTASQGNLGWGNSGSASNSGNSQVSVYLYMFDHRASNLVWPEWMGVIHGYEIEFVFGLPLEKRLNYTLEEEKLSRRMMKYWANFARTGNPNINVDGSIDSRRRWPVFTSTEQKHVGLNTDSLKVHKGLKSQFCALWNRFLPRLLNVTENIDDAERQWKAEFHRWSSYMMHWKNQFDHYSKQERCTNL
Experimental: Two fixed concentrations of the inhibitor (IC50, 2IC50) were chosen and for each concentration, the initial velocity (V) of the substrate ATCI/BTCI hydrolysis was measured at different concentrations in the range of 0–1.5 mM. […] Furthermore, Ki value was obtained by extrapolating the slopes of Lineweaver-Burk plots against inhibitor concentrations (Fig. 3B).
(§2) To determine the mechanisms of action of 5c and 7c, a series of experiments were performed at different concentrations of the substrate ATCI/BTCI. The inhibitor concentrations were (IC50, 2IC50). Substrates ATCI/BTCI concentrations were 0, 0.13, 0.3, 0.45, 0.675, 1.01 and 1.51 mM in all kinetic studies. Pre-incubation and measurement time were the same as reported in the perivous assay protocol. Kinetic characterization analysis was done spectrometrically at 412 nm.

eqBuChE = molecular target: T4, eqBuChE (Equus caballus, UniProt P81908); experiment: Kinetic study of eqBuChE inhibition (Lineweaver-Burk); format: biochemical
T4 construct: BuChE (E.C.3.1.1.8, from equine serum); purchased Sigma-Aldrich and Fluka; host or cells: equine serum
T4 sequence (P81908 whole entry): as the sequence (P81908 whole entry) above
Experimental: as §2

Aβ peptide = settings: cited from earlier work
AChE = settings: cited from earlier work
[3] = modified Ellman's method, read-out: eeAChE IC50

T1 sequence (O42275 24-633): as the sequence (O42275 24-633) above

## O=Cc1ccc(OCCN2CCOCC2)cc1 [3b, 4-(2-morpholinoethoxy)benzaldehyde]
[1]
  cholinesterase inhibitory activity against eeAChE: did not show any cholinesterase inhibitory activity
[2]
  cholinesterase inhibitory activity against eqBuChE: did not show any cholinesterase inhibitory activity

## N#CC(C#N)=Cc1ccc(OCCN2CCCCC2)cc1 [5a]
[1]
  IC50: 2800 ± 50 nM
[2]
  inhibitory activity for eqBuChE: no inhibitory activity

## N#CC(C#N)=Cc1ccc(OCCN2CCOCC2)cc1 [5b]
[1]
  cholinesterase inhibitory activity against eeAChE: did not show any cholinesterase inhibitory activity
[2]
  cholinesterase inhibitory activity against eqBuChE: did not show any cholinesterase inhibitory activity

## COC(=O)/C(C#N)=C/c1ccc(OCCN2CCCCC2)cc1 [5c]
[1]; eeAChE vs eqBuChE IC50
  selectivity for AChE than for BuChE: more than 200 fold
[1]; [3]
  IC50: 500 nM
[2]
  inhibitory activity for eqBuChE: no inhibitory activity was found; also recorded: no inhibition
eeAChE; Lineweaver-Burk plots, substrate ATCI
  type of inhibition of eeAChE: mixed-type inhibition
eeAChE; slopes of Lineweaver-Burk plots against inhibitor concentrations
  Ki: 53 nM

## N#CC1=C(N)OC2=C(C(=O)CCC2)C1c1ccc(OCCN2CCCCC2)cc1 (centres unmarked) [7a, 2-Amino-5-oxo-4-(4-(2-(piperidin-1-yl)ethoxy)phenyl)-5,6,7,8-tetrahydro-4H-chromene-3-carbonitrile]
[1]; [3]
  IC50: 20400 ± 9300 nM
[2]
  IC50: 8100 ± 500 nM

## CC1(C)CC(=O)C2=C(C1)OC(N)=C(C#N)C2c1ccc(OCCN2CCCCC2)cc1 (centres unmarked) [7c, 2-Amino-7,7-dimethyl-5-oxo-4-(4-(2-(piperidin-1-yl)ethoxy)phenyl)-5,6,7,8-tetrahydro-4H-chromene-3-carbonitrile]
[1]; [3]
  IC50: 35600 ± 3700 nM
[2]
  IC50: 2500 ± 600 nM
eqBuChE; Lineweaver-Burk plot, substrate BTCI
  type of inhibition of eqBuChE: mixed-type of inhibition
eqBuChE; plot of slopes against inhibitor concentration
  Ki: 156 nM

## Cc1cc2c(c(=O)o1)C(c1ccc(OCCN3CCCCC3)cc1)C(C#N)=C(N)O2 (centres unmarked) [7e, 2-Amino-7-methyl-5-oxo-4-(4-(2-(piperidin-1-yl)ethoxy)phenyl)-4H,5H-pyrano[4,3-b]pyran-3-carbonitrile]
[1]; [3]
  IC50: 2100 ± 50 nM
[2]
  inhibitory activity for eqBuChE: no inhibitory activity

## Cc1cc2c(c(=O)o1)C(c1ccc(OCCN3CCOCC3)cc1)C(C#N)=C(N)O2 (centres unmarked) [7f, 2-Amino-7-methyl-4-(4-(2-morpholinoethoxy)phenyl)-5-oxo-4H,5H-pyrano[4,3-b]pyran-3-carbonitrile]
[1]
  cholinesterase inhibitory activity against eeAChE: did not show any cholinesterase inhibitory activity
[2]
  cholinesterase inhibitory activity against eqBuChE: did not show any cholinesterase inhibitory activity

## COc1cc2c(cc1OC)C(=O)C(CC1CCN(Cc3ccccc3)CC1)C2 (centres unmarked) [Donepezil, donepezil]
Aβ peptide; at 100 µM, as stated in introduction section
  inhibition of the aggregation of Aβ peptide: 22%

## CC[N+](C)(CC)CCC[n+]1c(-c2ccccc2)c2cc(N)ccc2c2ccc(N)cc21 [Propidium, propidium]
AChE
  IC50: […]
Aβ peptide
  effect on Aβ aggregation: reduces the aggregation

## CC[N+](C)(C)c1cccc(O)c1 [edrophonium]
AChE
  IC50: 5360 nM
Aβ peptide
  effect on Aβ aggregation: fails to slow down the Aβ aggregation
